Experiments:
HIV-1, NL4-3 strain = experiment: Virus infection assay (virus entry and single-cycle infection); format: cell-based; details: Human immunodeficiency virus 1, NL43, TZM-b1, read-out: Nl4
Method: TZM-b1 indicator cells were propagated in Dulbecco's Modified Eagle's Medium (DMEM) containing 10% fetal bovine serum (FBS, heat-inactivated) and supplemented with gentamicin (50 ug/mL).
This assay determines the effects of compounds on virus entry and single-cycle infection of cells. In this assay, virus (HIV-1, NL4-3 strain) is added to indicator cells expressing the CD4 receptor and both the CXCR4 and CCR5 co-receptor. The cells contain both a lac Z and a luciferase reporter gene under control of the viral LTR transcription promoter. The cells and virus are incubated together in the presence of various concentrations of test compounds. Successful infection of the cells by the virus permits activation of the reporter gene by the viral Tat transcription factor. The resulting beta-galactosidase or luciferase activity is quantitated using a chemiluminescent substrate and a luminescent plate reader.
Specifically, one day prior to infection, 1.5×10^4 TZM-b1 indicator cells were added to each well of a 96-well microtiter plate. On the day of the experiment, virus (MOI 0.01) in 50 μL of medium (Dulbecco's Modified Eagle's Medium) supplemented with DEAE-dextran at a final concentration of 80 μg/mL was added to cells along with various concentrations of test compound in 50 μL of Dulbecco's Modified Eagle's Medium. Control wells had virus alone. Following a 4 hr incubation at 37° C., complete media [DMEM supplemented with 10% fetal bovine serum (FBS, heat-inactivated) and gentamicin (50 ug/mL)] was added. One day post-infection the level of virus infection was quantitated by detection of β-galactosidase expression using the Gal-Screen system (Applied Biosystems).

[1] = target: T1, HIV Env six-helix bundle (6HB) structure (Human immunodeficiency virus type 1 group M subtype B, UniProt P04579); experiment: Six-helix bundle (6HB) assay; format: cell-based, HIV-1 (strain RF)
T1 construct: H9 cells chronically infected with HIV-1 (H9/HIV-1RF); endogenous in cells; host or cells: H9 cells chronically infected with HIV-1 strain RF (Env is made from the virus in the infected cells, not by transfection)
T1 sequence (P04579 32-519): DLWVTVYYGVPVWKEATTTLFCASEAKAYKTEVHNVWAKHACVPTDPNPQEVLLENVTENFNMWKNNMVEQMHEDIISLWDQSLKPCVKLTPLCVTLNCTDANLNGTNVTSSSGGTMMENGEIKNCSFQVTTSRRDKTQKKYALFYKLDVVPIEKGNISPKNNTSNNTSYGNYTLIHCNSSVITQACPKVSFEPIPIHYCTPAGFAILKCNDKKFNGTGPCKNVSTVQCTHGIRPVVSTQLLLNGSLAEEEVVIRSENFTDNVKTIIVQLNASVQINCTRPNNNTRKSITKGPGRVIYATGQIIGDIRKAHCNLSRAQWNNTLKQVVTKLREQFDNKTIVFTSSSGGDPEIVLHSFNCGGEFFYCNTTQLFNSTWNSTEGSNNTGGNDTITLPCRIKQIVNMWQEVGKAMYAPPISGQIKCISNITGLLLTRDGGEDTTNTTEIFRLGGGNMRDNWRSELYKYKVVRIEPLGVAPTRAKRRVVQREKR
T1 sequence (P04579 520-865): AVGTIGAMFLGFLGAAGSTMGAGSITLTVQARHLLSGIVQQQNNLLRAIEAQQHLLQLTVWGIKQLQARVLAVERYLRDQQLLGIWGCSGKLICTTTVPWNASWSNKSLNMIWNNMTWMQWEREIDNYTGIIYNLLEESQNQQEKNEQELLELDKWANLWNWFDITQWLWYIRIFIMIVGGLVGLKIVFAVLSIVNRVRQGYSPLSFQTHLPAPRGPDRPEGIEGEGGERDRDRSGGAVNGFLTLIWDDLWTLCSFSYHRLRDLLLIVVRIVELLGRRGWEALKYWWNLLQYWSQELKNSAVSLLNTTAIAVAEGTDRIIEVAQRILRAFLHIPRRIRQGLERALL
Method: 3×10^6H9 cells were incubated with 1 mL of HIV-1 (strain RF) supplemented with 40 μg/mL of DEAE-dextran. Virus and cells were incubated together at 37° C. for 2-4 hours with sporadic shaking to resuspend cells. 10 mL of media (RPMI 1640 containing 10% fetal bovine serum and supplemented with 50 μg/mL gentamicin) was then added and the virus-cell coculture was incubated at 37° C. in a humidified 5% CO2 incubator. 3 days post-infection and every 2-3 days thereafter, the infected H9/HIV-1RF cells were centrifuged, the supernatant was removed, and the cells were resuspended at a density of 0.3×10^6 cells/mL in media (RPMI 1640 containing 10% fetal bovine serum and supplemented with 50 μg/mL gentamicin). Chronically infected H9/HIV-1RF cells were used in experiments starting 12-15 days after infection and up to 40 days post-infection.
This assay determines the effect of compounds on conformational changes in HIV envelope glycoprotein (Env) that are required in order for Env to mediate the fusion of the viral and cellular membranes during virus entry and infection. Specifically, this assay measures the effect of compounds on the formation of the HIV Env six-helix bundle (6HB) structure.
H9 cells chronically infected with HIV-1 (H9/HIV-1RF) were resuspended in Stain/Wash Buffer (1% bovine serum albumin, 0.1% sodium azide in phosphate-buffered saline) and aliquoted at 2.5×10^5 cells per well into 96-well V-bottom plates containing various concentrations of test compounds. Cells and compounds were incubated for 30 minutes at 37° C. Recombinant soluble CD4 (sCD4) was then added to a final concentration of 1 μg/mL. Negative control wells contained no sCD4 and no test compound. Positive control wells contained sCD4 but no test compound. The plate was incubated for 1 hour at 37° C. to allow the sCD4 to bind to HIV Env and induce conformational changes in the Env protein. Antibody that is specific for the HIV Env six-helix bundle conformation was then added (1 μL polyclonal rabbit serum per well), and the plate was incubated for an additional 1 hour at 37° C. to permit antibody binding. The cells were then washed once with Stain/Wash Buffer to remove compound and excess antibody. The cells were resuspended in Stain/Wash Buffer containing PE-labeled anti-rabbit secondary antibody (KPL) at 0.25 μg per well. The cells were incubated for 45 min at 4° C. to permit secondary antibody binding. Fluorescence was detected using a BD FACSArray™ bioanalyzer. Compounds that inhibited Env conformational changes were identified as those that decreased primary antibody binding to the six-helix bundle epitope resulting in a decrease in fluorescence signal.

SMILES: COc1ccc(-c2nc3c(C(=O)N4CCN([C@@H](C)c5cc(F)c(F)c(F)c5)C[C@H]4C)cnn3c(C(F)(F)F)c2C)cc1 [methanone, [5-(4-methoxyphenyl)-6-methyl-7-(trifluoromethyl)pyrazolo[1,5-α]pyrimidin-3-yl][(2R)-2-methyl-4-[(1S)-1-(3,4,5-trifluorophenyl)ethyl]-1-piperazinyl]-]
- IC50 (HIV-1, NL4-3 strain): < 1000 nM
- IC50 [1]: < 1000 nM

SMILES: COc1ccc(-c2nc3c(C(=O)N4CCN(C(CO)c5cccc(C#N)c5)C[C@H]4C)cnn3c(C(F)(F)F)c2C)cc1 (stereo partly drawn) [benzonitrile, 3-[2-hydroxy-1-[(3R)-4-[[5-(4-methoxyphenyl)-6-methyl-7-(trifluoromethyl)pyrazolo[1,5-α]pyrimidin-3-yl]carbonyl]-3-methyl-1-piperazinyl]ethyl]-]
- IC50 (HIV-1, NL4-3 strain): < 1000 nM
- IC50 [1]: < 1000 nM

SMILES: COc1ccc(-c2nc3c(C(=O)N4CCN(C(CO)c5ccccc5OC(F)(F)F)C[C@H]4C)cnn3c(C(F)(F)F)c2C)cc1 (stereo partly drawn) [methanone, [(2R)-4-[2-hydroxy-1-[2-(trifluoromethoxy)phenyl]ethyl]-2-methyl-1-piperazinyl][5-(4-methoxyphenyl)-6-methyl-7-(trifluoromethyl)pyrazolo[1,5-α]pyrimidin-3-yl]-]
- IC50 (HIV-1, NL4-3 strain): 1100 to 10000 nM
- IC50 [1]: 1100 to 10000 nM

SMILES: COc1ccc(-c2nc3c(C(=O)N4CCN(C(CO)c5ccccc5N)C[C@H]4C)cnn3c(C(F)(F)F)c2C)cc1 (stereo partly drawn) [methanone, [(2R)-4-[1-(2-aminophenyl)-2-hydroxyethyl]-2-methyl-1-piperazinyl][5-(4-methoxyphenyl)-6-methyl-7-(trifluoromethyl)pyrazolo[1,5-α]pyrimidin-3-yl]-]
- IC50 (HIV-1, NL4-3 strain): 1100 to 10000 nM
- IC50 [1]: 1100 to 10000 nM

SMILES: COc1ccc(-c2nc3c(C(=O)N4CCN(C(CO)c5cccc(N6CCNCC6)c5)C[C@H]4C)cnn3c(C(F)(F)F)c2C)cc1 (stereo partly drawn) [methanone, [(2R)-4-[2-hydroxy-1-[3-(1-piperazinyl)phenyl]ethyl]-2-methyl-1-piperazinyl][5-(4-methoxyphenyl)-6-methyl-7-(trifluoromethyl)pyrazolo[1,5-α]pyrimidin-3-yl]-]
- IC50 (HIV-1, NL4-3 strain): > 10100 nM
- IC50 [1]: > 10100 nM

SMILES: COc1ccc(-c2nc3c(C(=O)N4CCN([C@H](C)c5cc(F)c(F)c(F)c5)C[C@H]4C)cnn3c(C(F)(F)F)c2C)cc1 [methanone, [5-(4-methoxyphenyl)-6-methyl-7-(trifluoromethyl)pyrazolo[1,5-α]pyrimidin-3-yl][(2R)-2-methyl-4-[(1R)-1-(3,4,5-trifluorophenyl)ethyl]-1-piperazinyl]-]
- IC50 (HIV-1, NL4-3 strain): < 1000 nM
- IC50 [1]: < 1000 nM

SMILES: COc1ccc(-c2nc3c(C(=O)N4CCN(C(CO)c5c(F)cccc5F)C[C@H]4C)cnn3c(C(F)(F)F)c2C)cc1 (stereo partly drawn) [methanone, [(2R)-4-[1-(2,6-difluorophenyl)-2-hydroxyethyl]-2-methyl-1-piperazinyl][5-(4-methoxyphenyl)-6-methyl-7-(trifluoromethyl)pyrazolo[1,5-α]pyrimidin-3-yl]-]
- IC50 (HIV-1, NL4-3 strain): < 1000 nM
- IC50 [1]: < 1000 nM

SMILES: COc1ccc(-c2nc3c(C(=O)N4CCN(C(CO)c5ccoc5)C[C@H]4C)cnn3c(C(F)(F)F)c2C)cc1 (stereo partly drawn) [methanone, [(2R)-4-[1-(3-furanyl)-2-hydroxyethyl]-2-methyl-1-piperazinyl][5-(4-methoxyphenyl)-6-methyl-7-(trifluoromethyl)pyrazolo[1,5-α]pyrimidin-3-yl]-]
- IC50 (HIV-1, NL4-3 strain): < 1000 nM
- IC50 [1]: < 1000 nM

SMILES: COc1ccc(-c2nc3c(C(=O)N4CCN(C(CO)c5ccc(OC)cc5OC)C[C@H]4C)cnn3c(C(F)(F)F)c2C)cc1 (stereo partly drawn) [methanone, [(2R)-4-[1-(2,4-dimethoxyphenyl)-2-hydroxyethyl]-2-methyl-1-piperazinyl][5-(4-methoxyphenyl)-6-methyl-7-(trifluoromethyl)pyrazolo[1,5-α]pyrimidin-3-yl]-]
- IC50 (HIV-1, NL4-3 strain): < 1000 nM
- IC50 [1]: < 1000 nM

SMILES: COc1ccc(-c2nc3c(C(=O)N4CCN([C@@H](C)c5ccc(N)cc5)C[C@H]4C)cnn3c(C(F)(F)F)c2C)cc1 [methanone, [(2R)-4-[(1S)-1-(4-aminophenyl)ethyl]-2-methyl-1-piperazinyl][5-(4-methoxyphenyl)-6-methyl-7-(trifluoromethyl)pyrazolo[1,5-α]pyrimidin-3-yl]-]
- IC50 (HIV-1, NL4-3 strain): < 1000 nM
- IC50 [1]: 1100 to 10000 nM

SMILES: Cc1c(-c2ccc(C3CC3)cc2)nc2c(C(=O)N3CCN([C@@H](CO)c4ccccc4)C[C@H]3C)cnn2c1C(F)(F)F [methanone, [5-(4-cyclopropylphenyl)-6-methyl-7-(trifluoromethyl)pyrazolo[1,5-α]pyrimidin-3-yl][(2R)-4-[(1R)-2-hydroxy-1-phenylethyl]-2-methyl-1-piperazinyl]-]
- IC50 (HIV-1, NL4-3 strain): < 1000 nM
- IC50 [1]: < 1000 nM

SMILES: COc1ccc(-c2nc3c(C(=O)N4CCN([C@H](CO)c5ccc(Cl)s5)C[C@H]4C)cnn3c(C(F)(F)F)c2C)cc1 [methanone, [(2R)-4-[(1R)-1-(5-chloro-2-thienyl)-2-hydroxyethyl]-2-methyl-1-piperazinyl][5-(4-methoxyphenyl)-6-methyl-7-(trifluoromethyl)pyrazolo[1,5-α]pyrimidin-3-yl]-]
- IC50 (HIV-1, NL4-3 strain): < 1000 nM
- IC50 [1]: < 1000 nM

SMILES: COc1ccc(-c2nc3c(C(=O)N4CCN([C@H](CO)c5cc(C)cs5)C[C@H]4C)cnn3c(C(F)(F)F)c2C)cc1 [methanone, [(2R)-4-[(1R)-2-hydroxy-1-(4-methyl-2-thienyl)ethyl]-2-methyl-1-piperazinyl][5-(4-methoxyphenyl)-6-methyl-7-(trifluoromethyl)pyrazolo[1,5-α]pyrimidin-3-yl]-]
- IC50 (HIV-1, NL4-3 strain): < 1000 nM
- IC50 [1]: < 1000 nM

SMILES: COc1ccc(-c2nc3c(C(=O)N4CCN([C@@H](CO)c5ccccc5F)C[C@H]4C)cnn3c(C(F)(F)F)c2C)cc1 [methanone, [(2R)-4-[(1R)-1-(2-fluorophenyl)-2-hydroxyethyl]-2-methyl-1-piperazinyl][5-(4-methoxyphenyl)-6-methyl-7-(trifluoromethyl)pyrazolo[1,5-α]pyrimidin-3-yl]-]
- IC50 (HIV-1, NL4-3 strain): < 1000 nM
- IC50 [1]: < 1000 nM

SMILES: COc1ccc(-c2nc3c(C(=O)N4CCN(C(CO)c5cccc(N6CCCC6)c5)C[C@H]4C)cnn3c(C(F)(F)F)c2C)cc1 (stereo partly drawn) [methanone, [(2R)-4-[2-hydroxy-1-[3-(1-pyrrolidinyl)phenyl]ethyl]-2-methyl-1-piperazinyl][5-(4-methoxyphenyl)-6-methyl-7-(trifluoromethyl)pyrazolo[1,5-α]pyrimidin-3-yl]-]
- IC50 (HIV-1, NL4-3 strain): < 1000 nM
- IC50 [1]: < 1000 nM

SMILES: COc1ccc(-c2nc3c(C(=O)N4CCN([C@@H](C)c5cccc(N)c5)C[C@H]4C)cnn3c(C(F)(F)F)c2C)cc1 [methanone, [(2R)-4-[(1S)-1-(3-aminophenyl)ethyl]-2-methyl-1-piperazinyl][5-(4-methoxyphenyl)-6-methyl-7-(trifluoromethyl)pyrazolo[1,5-α]pyrimidin-3-yl]-]
- IC50 (HIV-1, NL4-3 strain): < 1000 nM
- IC50 [1]: < 1000 nM

SMILES: COc1ccc(-c2nc3c(C(=O)N4CCN([C@H](CO)c5cccc(OC)c5F)C[C@H]4C)cnn3c(C(F)(F)F)c2C)cc1 [methanone, [(2R)-4-[(1S)-1-(2-fluoro-3-methoxyphenyl)-2-hydroxyethyl]-2-methyl-1-piperazinyl][5-(4-methoxyphenyl)-6-methyl-7-(trifluoromethyl)pyrazolo[1,5-α]pyrimidin-3-yl]-]
- IC50 (HIV-1, NL4-3 strain): < 1000 nM
- IC50 [1]: < 1000 nM
